In article PMC11802874, “The hypolipidemic effect of MI-883, the combined CAR agonist/ PXR antagonist, in diet-induced hypercholesterolemia model” (Nature Communications, 2025):
“And” between values parts separate entries of the source, which are not always exact repeats. Equal values may be shown once. “Also recorded” adds a separate entry of the source.

Columns and labels:
[1] = tested on: humanized PXR-CAR-CYP3A4/3A7 mice; experiment: Hepatic induction study in humanized PXR-CAR-CYP3A4/3A7 mice (i.p.); assay type: in vivo, mouse
Text: In the induction experiments, […] was sampled from the gallbladder.

[2] = tested on: PXB-mouse humanized liver mice (human hepatocytes); experiment: PXB-mouse humanized liver mice study; assay type: in vivo; design: key to BW: body weight in g; Cho / CHO in LDL / CHO in HDL / CHO in VLDL / CHO in Chylom / TG / TG in LDL / TG in HDL / TG in VLDL / TG in Chylo / rel LW: unit not given here
Protocol: PXB-mouse® are mice with background genotype: cDNA-uPAwild/+/SCID [cDNA-uPAwild/+: B6;129SvEv-Plau, SCID: C.B-17/Icr-scid /scid Jcl]. Mice contain human hepatocytes with an estimated replacement index of 70% or more in the liver, which is calculated based on the blood concentration of human albumin (h-Alb). Human hepatocytes for the experiment were obtained from BD195 (Corning Incorporated, Tewksbury, MA, USA).
Male mice (n = 5 per group) were used for the experiments with the following characteristics: 19 to 23 weeks old on Day 0, body weights on Day 0 (19.3 to 22.3 g), and blood h-Alb Level (from 9.1 to 15.0 mg/mL).
MI-883 was applied in the following vehicle: corn oil (90%)/DMSO (5%)/PEG30 (5%) formulation of MI-883 2.5 mg/kg (1.5 mL) to treated animals. The same vehicle was used in the control group. MI-883 was applied via p.o. gavage using disposable plastic sondes (Fuchigami Kikai Co., Kyoto, Japan) at the dose of 2.5 mg/kg every day ([…] -day 0-Day 7).
The target volume of blood (200 μL) was collected from all subject animals under isoflurane anesthesia via the retro-orbital plexus/sinus using calibrated pipettes (Drummond Scientific Company, PA, USA) at each time point after 4 h of fasting. Isoflurane inhalation solution was also used at the terminal blood sampling. The livers were snap-frozen in two or more pieces in one tube in liquid nitrogen. These frozen liver samples were stored at −80 °C. Urine was directly collected from the urinary bladder using a syringe. Bile was directly collected from the gallbladder using a syringe.
Serum h-ALT1 concentration was determined based on an Enzyme-Linked ImmunoSorbent Assay (ELISA) developed by the Institute of Immunology Co., Ltd (Tokyo, Japan) (for details see Supplementary, Chapter 11).
The clinical chemistry analyzer (BioMajestyTM Series JCA-BM6050, JEOL Ltd., Tokyo, Japan) was used to measure the blood h-Alb. LipoSEARCH to determine the serum level of total cholesterol, triglyceride, chylomicron, VLDL, LDL, and HDL was performed by SkyLight Biotech (Akita, Japan). Serum h-ALT1 concentration was determined based on an Enzyme-Linked ImmunoSorbent Assay (ELISA) developed by the Institute of Immunology Co., Ltd. (Tokyo, Japan). SpectraMax® ABS Plus Microplate Readers (Molecular Devices LLC, San Jose, CA, USA) were used for this measurement.

[3] = Metabolic stability in human liver S9 fraction
Protocol: Shimadzu HPLC system including vacuum degasser, gradient pumps, reverse phase HPLC column, column oven, and autosampler with an API 4000 QTRAP mass spectrometer (Applied Biosystems/MDS Sciex (AB Sciex) with Turbo V ion source and TurboIonspray interface were used. The reference compound midazolam, which is metabolized both by phase I and phase II enzymes, was used. The elimination constant (kel), half-life (t1/2), and intrinsic clearance (Clint) were determined[19] (Table S1).
Supplementary Figure 1. […] Test compounds (1 μM, final DMSO concentration 1%) were incubated at 37 °C with shaking at 100 rpm. Four time points over 120 minutes have been analyzed. The reactions were stopped by adding 420 μL of acetonitrile-water mixture (90:10). Supernatants were analyzed by the HPLC system coupled with a tandem mass spectrometer. The percentage (in % of initial concertation) of the test compounds remaining after incubation in plasma and their half-lives (t1/2) were calculated. […] The stability of the compound was tested in human liver S9 fraction. Cofactors were used such as UDPGA (for glucuronidation), PAPS (for sulfation), and reduced glutathione (for conjugation of GSH). Compounds were tested in triplicate with or without NADPH. Propantheline and midazolam were used as unstable control compounds in the experiments. Data represent the means±S.D. from at least three independent samples.

[4] = single agents i.p.: Rif 3×5 mg/kg, CITCO 10 mg/kg two doses, MI-883 10 mg/kg 3 days
[5] = 2.5 mg/kg per day, one week, n = 5
[6] = FigS15, humanized liver mice, individual animals
[7] = FigS15, plasma total, individual animals
[8] = FigS15, plasma, individual animals
[9] = FigS17, individual animals, relative to control
[10] = humanized Liver mice, human gene, relative to control, individual animals
[11] = humanized Liver mice, mouse gene, relative to control, individual animals

For `NC(=O)c1cc(Cn2cc(-c3c(-c4ccc(Cl)cc4)nc4cc(F)ccn34)nn2)ccc1Cl` [MI-883, 2-chloro-5-((4-(2-(4-chlorophenyl)-7-fluoroimidazo[1,2-a]pyridin-3-yl)-1H-1,2,3-triazol-1-yl)methyl)benzamide], the “fold mRNA induction CYP3A4 in livers of humanized PXR-CAR-CYP3A mice” value ([1]; MI-883 10 mg/kg i.p. 3 days, not significant) was 1.9 fold, the “hepatic CYP3A4 mRNA, hPXR/hCAR/CYP3A4/7 mice (Fig. 3e), individual animals” value ([1]; Rif + MI-883 combination i.p.) was 15.1375 and 21.1204 and 7.333 and 13.3527 and the “hepatic Cyp2b10 mRNA, hPXR/hCAR/CYP3A4/7 mice (Fig. 3e), individual animals” value ([1]; Rif + MI-883 combination i.p.) was 37.4609 and 22.8189 and 29.2533 and 22.0407. For the same molecule, the “hepatic CYP3A4 mRNA, hPXR/hCAR/CYP3A4/7 mice (Fig. 3e), individual animals” value [1, 4] was 2.527 and 2.124 and 1.135, the “hepatic Cyp2b10 mRNA, hPXR/hCAR/CYP3A4/7 mice (Fig. 3e), individual animals” value [1, 4] was 5.955 and 3.722 and 12.2143 and the “Cyp2b10 mRNA in the liver, preliminary studies” value ([1]; single dose of 5 mg/kg in oral gavage) was “significant induction”. The “liver enlargement (LW/BW ratio) in PXB humanized liver mice” value ([2]; 2.5 mg/kg every day, 7 days) was “did not observe significant liver enlargement”, the “proliferative biomarkers MDM2, PCNA, FOXM1 in PXB humanized liver mice” value ([2]; 2.5 mg/kg every day, 7 days) was “no significant effects” and the “human albumin or human ALT (h-ALT1)” value ([2]; 2.5 mg/kg per day, one week) was “did not observe any increase”. For the same molecule, the “LDL and HDL cholesterol plasma concentrations in PXB mice” value [2, 5] was “tendency for a decrease in LDL and an increase in HDL”, the “total cholesterol concentration in PXB mice” value [2, 5] was “did not reach statistical significance” and the BW [2, 6] was 21.1 and 21.2 and 18.9 and 21.4. For the same molecule, the “rel LW” value [2, 6] was 12.7 and 13.9 and 18.9 and 13.7 and 15.2, the h-ALT1 ([2]; FigS15, plasma biochemistry, individual animals) was 32.4 and 23.1 and 36 and 38.8 and 27.9 and the Cho [2, 7] was 59.5 and 63.3 and 87.8 and 100.6 and 69.3. For the same molecule, the TG [2, 7] was 79.5 and 114.8 and 91.5 and 67.5 and 118.2, the “CHO in Chylom” value [2, 8] was 0.4 and 0.8 and 0.7 and 0.6 and the “CHO in HDL” value [2, 8] was 16 and 14.3 and 11.7 and 8 and 13.8. For the same molecule, the “CHO in LDL” value [2, 8] was 26.1 and 26.5 and 51.9 and 65.5 and 32.2, the “CHO in VLDL” value [2, 8] was 17 and 21.7 and 23.6 and 26.5 and 22.7 and the “TG in Chylo” value [2, 8] was 2.6 and 5 and 3.9 and 2.5 and 3.5. For the same molecule, the “TG in HDL” value [2, 8] was 3.2 and 3.7 and 4.2 and 3.6 and 4.3, the “TG in LDL” value [2, 8] was 30.8 and 34.5 and 34.1 and 36.7 and 34 and the “TG in VLDL” value [2, 8] was 43 and 71.6 and 49.3 and 24.6 and 76.4. The “ABCC4 mRNA (RT-qPCR in humanized liver mice)” value [2, 9] was 1.98 and 1.27 and 2.64 and 0.98 and 0.66, the “CYP2B6 mRNA (RT-qPCR in humanized liver mice)” value [2, 9] was 7.04 and 2.86 and 13.89 and 12.41 and 7.61 and the “CYP3A4 mRNA (RT-qPCR in humanized liver mice)” value [2, 9] was 0.35 and 0.63 and 1.62 and 10.03 and 6.65. The “HMGCR1 mRNA (RT-qPCR in humanized liver mice)” value [2, 9] was 0.23 and 0.46 and 0.39 and 0.62 and 1.11, the “HMGCS2 mRNA (RT-qPCR in humanized liver mice)” value [2, 9] was 3.19 and 1.63 and 2.91 and 2.97 and 2.16 and the “LDLR mRNA (RT-qPCR in humanized liver mice)” value [2, 9] was 1.63 and 0.66 and 1.69 and 2.23 and 2.34. For the same molecule, the “SREBF1 mRNA (RT-qPCR in humanized liver mice)” value [2, 9] was 0.27 and 0.47 and 0.58 and 0.76 and 1.32, the “UGT1A1 mRNA (RT-qPCR in humanized liver mice)” value [2, 9] was 3.46 and 1.67 and 5.52 and 2.7 and 2.14 and the “CYP2B6 mRNA in PXB humanized mice” value ([2]; Supplementary Fig. 17) was “upregulation”. The “CYP3A4 mRNA in PXB humanized mice” value ([2]; Supplementary Fig. 17) was “have not significantly changed; also recorded: not statistically significant induction”, the “Foxm1 RT-qPCR (Fig. 7d)” value [2, 10] was 1.35 and 2.21 and 1.02 and 0.71 and 2.23 and the “MKI67 RT-qPCR (Fig. 7d)” value [2, 10] was 0.96 and 0.82 and 1.24 and 0.52 and 0.59. For the same molecule, the “Foxm1 RT-qPCR (Fig. 7d)” value [2, 11] was 0.92 and 1.07 and 0.75 and 0.53 and 0.33, the “Mki67 RT-qPCR (Fig. 7d)” value [2, 11] was 1.24 and 0.62 and 1.46 and 0.36 and 0.17 and the half-life at 2 µM ([3]; human, liver S9 fraction) was 2.85 h. The microsomal CLint at 2 µM ([3]; human, liver S9 fraction) was 2 µL/min/mg, the “Stability in S9 fraction (human liver), % remaining” value ([3]; time 0 (min), 2 μM) was 100 and the “Stability in S9 fraction (human liver), % remaining” value ([3]; time 20) was 100. For the same molecule, the “Stability in S9 fraction (human liver), % remaining” value ([3]; time 40) was 92, the “Stability in S9 fraction (human liver), % remaining” value ([3]; time 60) was 96 and the “Stability in S9 fraction (human liver), % remaining” value ([3]; time 120) was 84.
